Test results: PMC9674830, “A glutamine-based single α-helix scaffold to target globular proteins” (Nature Communications, 2022)

Biological target: T1, RAP74-CTD (Homo sapiens, UniProt P35269)
T1 construct: spanning residues 450-517; His6-MBP (with TEV site) (N, cleaved yes); made in house; host or cells: E. coli Rosetta (DE3)pLysS
T1 sequence (P35269 450-517): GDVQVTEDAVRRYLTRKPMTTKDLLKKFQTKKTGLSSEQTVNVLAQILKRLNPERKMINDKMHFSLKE
Assay: NMR chemical shift perturbation titration of peptides into 15N RAP74-CTD (KD)
Type: binding
Settings: 15 molar equivalents of peptide, NMR
Method: Recombinant samples with ^15N isotope enrichment of the C-terminal domain of subunit 1 of the general transcription regulator TFIIF (RAP74-CTD), spanning residues 450-517, were obtained as described previously. A codon-optimized synthetic gene cloned in a pDONR221 vector was obtained from GeneArt (Thermo Fisher Scientific, Waltham, MA, USA) and subcloned into a pDEST-His6MBP vector obtained from Addgene. Rosetta (DE3)pLysS competent cells (Novagen, Merck KGaA, Darmstadt, Germany) were grown in MOPS medium with ^15NH4Cl as the only nitrogen source (310 K, induction at OD600 = 0.7, 1 mM IPTG, harvesting 3 h after induction). Soluble fractions of cell lysates from sonication in lysis buffer (50 mM Tris-HCl, 1 M NaCl, 10 mM imidazole, pH 8.0) were purified by IMAC, and fractions containing the His6MBP-TEV-RAP74-CTD fusion were dialyzed at 277 K overnight against cleavage buffer (50 mM Tris-HCl, 200 mM NaCl, 0.5 mM EDTA, pH 8.0) in the presence of TEV protease (50 μg/mL). A second IMAC step was performed and the flow-through containing the RAP-CTD was loaded onto a HiTrap SP HP cation exchange column followed by a size exclusion chromatography step on a Superdex 75 GL 10/300 column equilibrated with NMR buffer (20 mM sodium phosphate, 0.1% trifluoroacetic acid, pH 7.4), both mounted in an Äkta Purifier System (GE Healthcare, Chicago, IL, USA). The sample was concentrated to 100 μM using an Amicon Ultra 15 mL centrifugal filter (Merck KGaA, Darmstadt, Germany).
Before the experiment, both the protein and the peptide were dialyzed (277 K, two dialysis steps) in the same preparation of NMR buffer (20 mM sodium phosphate, 0.1% trifluoroacetic acid, pH 7.4), using a Pur-A-Lyzer (Sigma-Aldrich, Burlington, MA, USA) and a Micro Float-A-Lyzer (Spectrum Laboratories, San Francisco, CA, USA) respectively. The chemical shift assignment of RAP74-CTD was reported previously (BMRB code 27288). Averaged ^1H and ^15N chemical shift perturbations (CSPs) were calculated as:2 ΔδAV=(Δδ1H)^2+1/5Δδ15N^2
Dissociation constants, KD, and averaged CSP amplitude, Δδmax, for δ, δstpl, γ and γstpl peptide binding to RAP74-CTD were obtained by a global fitting (nonlinear regression) of the 10% peaks with the largest averaged CSPs to the following single-site binding model (1:1 stoichiometry):3 Δδ=Δδmax([Protein]+[Peptide]+KD)−([Protein]+[Peptide]+KD)^2−4[Protein][Peptide]/2[Protein]

## KKPGASLAALQALQALQAAQAAKKY [(P3-7)2, Gln-based single α-helix scaffold peptide]
RAP74-CTD residue 452
  CSPs (ppm) induced by peptide on 15N RAP74-CTD, residue 452: 0.00133 ppm
RAP74-CTD residue 453
  CSPs (ppm) induced by peptide on 15N RAP74-CTD, residue 453: 0.00174 ppm
RAP74-CTD residue 454
  CSPs (ppm) induced by peptide on 15N RAP74-CTD, residue 454: 0.00213 ppm
RAP74-CTD residue 455
  CSPs (ppm) induced by peptide on 15N RAP74-CTD, residue 455: 0.00368 ppm
RAP74-CTD residue 457
  CSPs (ppm) induced by peptide on 15N RAP74-CTD, residue 457: 0.000762 ppm
RAP74-CTD residue 458
  CSPs (ppm) induced by peptide on 15N RAP74-CTD, residue 458: 0.00141 ppm
RAP74-CTD residue 459
  CSPs (ppm) induced by peptide on 15N RAP74-CTD, residue 459: 0.00114 ppm
RAP74-CTD residue 460
  CSPs (ppm) induced by peptide on 15N RAP74-CTD, residue 460: 0.00136 ppm
RAP74-CTD residue 461
  CSPs (ppm) induced by peptide on 15N RAP74-CTD, residue 461: 0.00237 ppm
RAP74-CTD residue 462
  CSPs (ppm) induced by peptide on 15N RAP74-CTD, residue 462: 0.00141 ppm
RAP74-CTD residue 463
  CSPs (ppm) induced by peptide on 15N RAP74-CTD, residue 463: 0.00149 ppm
RAP74-CTD residue 464
  CSPs (ppm) induced by peptide on 15N RAP74-CTD, residue 464: 0.002 ppm
RAP74-CTD residue 465
  CSPs (ppm) induced by peptide on 15N RAP74-CTD, residue 465: 0.000665 ppm
RAP74-CTD residue 466
  CSPs (ppm) induced by peptide on 15N RAP74-CTD, residue 466: 0.00337 ppm
RAP74-CTD residue 468
  CSPs (ppm) induced by peptide on 15N RAP74-CTD, residue 468: 0.000677 ppm
RAP74-CTD residue 469
  CSPs (ppm) induced by peptide on 15N RAP74-CTD, residue 469: 0.00178 ppm
RAP74-CTD residue 470
  CSPs (ppm) induced by peptide on 15N RAP74-CTD, residue 470: 0.00475 ppm
RAP74-CTD residue 471
  CSPs (ppm) induced by peptide on 15N RAP74-CTD, residue 471: 0.006 ppm
RAP74-CTD residue 472
  CSPs (ppm) induced by peptide on 15N RAP74-CTD, residue 472: 0.003 ppm
RAP74-CTD residue 473
  CSPs (ppm) induced by peptide on 15N RAP74-CTD, residue 473: 0.00131 ppm
RAP74-CTD residue 474
  CSPs (ppm) induced by peptide on 15N RAP74-CTD, residue 474: 0.000952 ppm
RAP74-CTD residue 475
  CSPs (ppm) induced by peptide on 15N RAP74-CTD, residue 475: 0.0011 ppm
RAP74-CTD residue 476
  CSPs (ppm) induced by peptide on 15N RAP74-CTD, residue 476: 0.00225 ppm
RAP74-CTD residue 477
  CSPs (ppm) induced by peptide on 15N RAP74-CTD, residue 477: 0.0034 ppm
RAP74-CTD residue 478
  CSPs (ppm) induced by peptide on 15N RAP74-CTD, residue 478: 0.00316 ppm
RAP74-CTD residue 484
  CSPs (ppm) induced by peptide on 15N RAP74-CTD, residue 484: 0.00185 ppm
RAP74-CTD residue 487
  CSPs (ppm) induced by peptide on 15N RAP74-CTD, residue 487: 0.009 ppm
RAP74-CTD residue 488
  CSPs (ppm) induced by peptide on 15N RAP74-CTD, residue 488: 0.000614 ppm
RAP74-CTD residue 489
  CSPs (ppm) induced by peptide on 15N RAP74-CTD, residue 489: 0.00261 ppm
RAP74-CTD residue 490
  CSPs (ppm) induced by peptide on 15N RAP74-CTD, residue 490: 0.002 ppm
RAP74-CTD residue 491
  CSPs (ppm) induced by peptide on 15N RAP74-CTD, residue 491: 0.002 ppm
RAP74-CTD residue 492
  CSPs (ppm) induced by peptide on 15N RAP74-CTD, residue 492: 0.003 ppm
RAP74-CTD residue 493
  CSPs (ppm) induced by peptide on 15N RAP74-CTD, residue 493: 0.00151 ppm
RAP74-CTD residue 494
  CSPs (ppm) induced by peptide on 15N RAP74-CTD, residue 494: 0.00469 ppm
RAP74-CTD residue 495
  CSPs (ppm) induced by peptide on 15N RAP74-CTD, residue 495: 0.00146 ppm
RAP74-CTD residue 496
  CSPs (ppm) induced by peptide on 15N RAP74-CTD, residue 496: 0.00171 ppm
RAP74-CTD residue 497
  CSPs (ppm) induced by peptide on 15N RAP74-CTD, residue 497: 0.00134 ppm
RAP74-CTD residue 498
  CSPs (ppm) induced by peptide on 15N RAP74-CTD, residue 498: 0.00172 ppm
RAP74-CTD residue 499
  CSPs (ppm) induced by peptide on 15N RAP74-CTD, residue 499: 0.000579 ppm
RAP74-CTD residue 500
  CSPs (ppm) induced by peptide on 15N RAP74-CTD, residue 500: 0.00095 ppm
RAP74-CTD residue 501
  CSPs (ppm) induced by peptide on 15N RAP74-CTD, residue 501: 0.00151 ppm
RAP74-CTD residue 503
  CSPs (ppm) induced by peptide on 15N RAP74-CTD, residue 503: 0.000881 ppm
RAP74-CTD residue 504
  CSPs (ppm) induced by peptide on 15N RAP74-CTD, residue 504: 0.002 ppm
RAP74-CTD residue 505
  CSPs (ppm) induced by peptide on 15N RAP74-CTD, residue 505: 0.002 ppm
RAP74-CTD residue 506
  CSPs (ppm) induced by peptide on 15N RAP74-CTD, residue 506: 0.008 ppm
RAP74-CTD residue 507
  CSPs (ppm) induced by peptide on 15N RAP74-CTD, residue 507: 0.004 ppm
RAP74-CTD residue 509
  CSPs (ppm) induced by peptide on 15N RAP74-CTD, residue 509: 0.00319 ppm
RAP74-CTD residue 510
  CSPs (ppm) induced by peptide on 15N RAP74-CTD, residue 510: 0.000691 ppm
RAP74-CTD residue 512
  CSPs (ppm) induced by peptide on 15N RAP74-CTD, residue 512: 0.00469 ppm
RAP74-CTD residue 513
  CSPs (ppm) induced by peptide on 15N RAP74-CTD, residue 513: 0.00335 ppm
RAP74-CTD residue 514
  CSPs (ppm) induced by peptide on 15N RAP74-CTD, residue 514: 0.001 ppm
RAP74-CTD residue 515
  CSPs (ppm) induced by peptide on 15N RAP74-CTD, residue 515: 0.00145 ppm
RAP74-CTD residue 516
  CSPs (ppm) induced by peptide on 15N RAP74-CTD, residue 516: 0.00117 ppm
RAP74-CTD residue 517
  CSPs (ppm) induced by peptide on 15N RAP74-CTD, residue 517: 0.000251 ppm
